Measured values taken from patent US20140038920A1, “TFEB PHOSPHORYLATION INHIBITORS AND USES THEREOF” (FONDAZIONE TELETHON, priority 2011, published 2014).

Columns and labels:
TFEB = TFEB nuclear localization in starved HeLa cells overexpressing TFEB, re-stimulated with media plus supplements or inhibitors (nuclear fractionation, Flag blot, immunofluorescence); type: cell-based; details: starved cells stimulated with normal medium supplemented with kinase inhibitor (FIG. 2g, 11b)
From the text: (A) Scatter Plot graphs displaying the logarithmic value of the fold change differences in the relative expression levels of 51 autophagy-related genes in HeLa cells cultured in different conditions. X-axis=control group. Y-axis=treated group. Circles represent genes with increased (red) or decreased (green) fold change. Comparisons were as indicated. (B) Chromatin immunoprecipitation (ChIP) analysis. […] Values were normalized to the input and plotted as relative enrichment over a mock control. Experiments were performed in triplicate. (C) qPCR analysis of TFEB-target gene expression in normal, starved, and in TFEB-siRNA starved cells. GAPDH and HPRT represents housekeeping genes, while ATG10, ATG9A and ATG4D represent control genes (non-TFEB target genes). (D-F) HeLa cells stably overexpressing TFEB were left untreated or nutrient starved for 4 h. (D) Five fields containing 50-100 cells/each were analyzed for TFEB nuclear localization. […] (E) Cells were subjected to nuclear/cytosolic fractionation and blotted with Flag antibody. H3 and tubulin were used as nuclear and cytosolic markers, respectively. (F) Nuclear fractions were blotted with Flag and H3 (loading control) antibodies. (G) Western blot analysis of Flag, tubulin and H3 in nuclear extracts prepared from normal, starved and starved/stimulated with normal media cells for 1 h (normal) or pretreated with AP-2 (AKT inhibitor), Rapamycin (mTOR inhibitor) and U0126 (MEK inhibitor) 1 h prior to media stimulation. Total extracts were used to verify the efficiency of the inhibitors. […] Starvation was performed where indicated. (All error bars represent standard deviations. T-test (unpaired) p value (*)<0.05, (**)<0.01)
Cytosolic and nuclear fractions were subjected to Flag immunoblotting. […] Error bars represent standard deviations.
Cells were seeded at 50% of confluence in 6 well dishes and serum starved overnight (ON). Normal medium was added the following day either in presence of DMSO or kinase inhibitors. Subcellular fractionation was carried out as previously reported.
To identify the mechanism of starvation-induced activation of TFEB, the applicants analyzed its subcellular localization and post-translational modifications in starved cells.

TFEB S142 = TFEB S142 phosphorylation with p-S142 phospho-antibody in HeLa cells (FIG. 20A); type: cell-based; details: starved cells supplemented with normal media with inhibitor
Protocol: FIG. 20 mTORC1 phosphorylates TFEB at serine 142 (S142). […] HeLa cells were treated as indicated and total and nuclear extracts were probed with a TFEB p-S142 phospho-antibody and with anti-FLAG antibody. (B) Schematic representation of TFEB protein structure with the predicted mTORC1 phosphorylation sites and their conservation among vertebrates. Numbering is according to human isoform 1. (C) Sequence conservation scores of the phosphorylation sites and quantitative agreement between mTOR consensus motif and the sequence around the phosphorylation sites of TFEB. (D) S142 and S211 regulate TFEB localization. Flag immunostaining of TFEB subcellular localization in HeLa cells expressing serine-to-alanine mutated versions of TFEB-3×Flag. Nuclei were stained with DAPI. Values are means of five fields containing at least 50 transfected cells. Student's t-test (unpaired) ***P<0.001. Scale bars represent […].
The mouse anti-TFEB monoclonal antibody was purchased from My Biosource catalogue No. MBS 120432. To generate anti-pS142 specific antibodies, rabbits were immunized with the following peptide coupled to KLH: AGNSAPN{pSer}[…]. Following the fourth immunization, rabbits were sacrificed and the serum was collected. Non-phosphospecific antibodies were depleted from the serum by circulation through a column containing the nonphosphorylated antigene. […]

[1] = tested on: glycosaminoglycan (GAG) accumulation in MSD NSCs; test: Alcian blue staining of GAGs in differentiated NSCs from MSD mice (FIG. 22); type: cell-based, mouse; details: glia-differentiated MSD NSCs, 10 nM, 24 hours, versus DMSO
Protocol: After 24 hours, the GAG content was determined by alcian blue (AB) staining. Both torins were able to reduce GAG staining in MSD treated cells as compared to DMSO treated cells.
Neuronal progenitor cells were isolated from cortices of WT and MSD pups (P0) by tissue homogenization using the neural tissue dissociation kit and separation using magnetic sorting of cells expressing the stem cell marker prominin-1 (Miltenyi Biotec Srl). Neuronal progenitor cells were maintained in ESGRO complete medium (Hyclone) in the presence of EGF and FGF2 growth factors (Prepotech). Where indicated, neural stem cells (NSCs) were differentiated by removing growth factors and incubate in ESGRO medium containing 2% of serum for at least 48 h.
Neuronal progenitor cells were isolated from cortices of WT and MSD pups (P0) by using standard protocols. Neuronal stem cells (NSCs) were fixed in Methacarn (60% Methanol; 10% Acetic Acid; 30% Chloroform) for 15 min at RT. After washing the cells were stained for 3 hours in 1% alcian blue pH 2.5, rinsed in 0.3% acetic acid and water and mounted in 100% for visualization.

ERK = test: p-ERK levels in primary hepatocytes (FIG. 21A); type: cell-based, mouse; details: primary hepatocytes treated overnight
From the text: Subsequently, cells were lysed and protein extracts were immunoblotted with the indicated antibodies. […] Quantitative PCR (qPCR) of TFEB target genes in primary hepatocytes from control (flox/flox) and Tcfeb−/− (flox/flox; alb-Cre) mice. […] The expression levels are shown as % increased expression of the treated versus the corresponding untreated samples. Values represent means±s.d. of three independent hepatocyte preparations (three mice/genotype). Student's t-test (two tailed) *P-value ≦0.05.

Row | Compound | TFEB nuclear localization (TFEB) | nutrient-induced S142 phosphorylation of TFEB (TFEB S142) | alcian blue-stained GAGs [1] | levels of p-ERK (ERK)
1 | CO[C@H]1C[C@@H]2CC[C@@H](C)[C@@](O)(O2)C(=O)C(=O)N2CCCC[C@H]2C(=O)O[C@H]([C@H](C)C[C@@H]2CC[C@@H](O)[C@H](OC)C2)CC(=O)[C@H](C)/C=C(\C)[C@@H](O)[C@@H](OC)C(=O)[C@H](C)C[C@H](C)/C=C/C=C/C=C/1C [RAPAMYCIN] | no effect | did not | – | –
2 | CCC(=O)N1CCN(c2ccc(-n3c(=O)ccc4cnc5ccc(-c6cnc7ccccc7c6)cc5c43)cc2C(F)(F)F)CC1 [TORIN 1] | – | clearly blunted nutrient-induced S142 phosphorylation | striking reduction | unaffected
